Measurements published in patent US4039550A, “Lower-alkyl (5-substituted-2-pyridyl)carbamodithioates” (Sterling Drug Inc., priority 1976, dated 1977).

What was measured:
[1] = test system: S. obvelata; test: Anthelmintic screening in mice against S. obvelata (pinworm), four-day medication; assay type: in vivo, Syphacia obvelata in Swiss mice; settings: 200 mg./kg./day p.o. for four days
From the text: The same test procedures described above were used to assess the effectiveness of the compounds against S. obvelata, a naturally occurring pinworm infection in Swiss mice. Efficacy was judged by the percent of mice cleared of the infection compared to non-medicated control mice.
(§1) Data obtained in anthelmintic screening tests against the helminth infections, N. dubius (a), H. nana (b) and S. obvelata (c), are given in the table below. Results are expressed in terms of the percent of animals cleared at a standard dose of 200 mg./kg./day (p.o.) for four days; as percent of animals cleared at a single dose (S.D.) of 25 mg./kg.; or as an ED50 on single dose administration (ED50) against N. dubius.

[2] = test system: N. dubius; test: Anthelmintic screening in mice against N. dubius (roundworm), four-day medication; assay type: in vivo, Nematospiroides dubius in Swiss mice; settings: 200 mg./kg./day p.o. for four days
Procedure: (§2) Anthelmintic activity was determined in mice against one species of roundworm (Nematospiroides dubius), one species of pinworm (Syphacia obvelata) and one species of tapeworm (Hymenolepis nana). The various test procedures used are described as follows: Swiss mice weighing approximately 20 grams were infected with approximately 20 larvae of N. dubius which were administered in 10% gelatin via stomach tube. For screening purposes, compounds, made up in 10% galatin, were administered via stomach tube in equally divided daily doses for four consecutive days beginning fourteen days after infection. Four days after the final medication, the animals were sacrificed and examined for the presence of worms. Efficacy against N. dubius was judged on the basis of percent worm reduction compared to control non-medicated mice. In addition, for the purpose of evaluation, the compounds were administered orally to a series of animals at graded doses, each animal receiving a single dose, and the results against N. dubius expressed in terms of an Effective Dose50 (ED50), the ED50 representing the dose necessary to remove 50% of the worm burden.
as §1

[3] = test system: N. dubius; test: Anthelmintic single-dose test in mice against N. dubius (S.D. and ED50); assay type: in vivo, Nematospiroides dubius in Swiss mice; settings: for ED50: Heligmosomoides polygyrus, against N. dubius, single oral dose, dose necessary to remove 50% of the worm burden, read-out: ED50 on single dose administration
Procedure: as §2, §1

[4] = test system: H. nana; test: Anthelmintic screening in mice against H. nana (tapeworm), four-day medication; assay type: in vivo, Hymenolepis nana in Swiss mice; settings: 200 mg./kg./day p.o. for four days
Procedure: In tests against the tapeworm, H. nana, Swiss mice weighing approximately 20 grams were infected with approximately 12,000 ova of H. nana administered in 10% gelatin via stomach tube. The test compounds, made up in 10% gelatin, were administered via stomach tube in equally divided doses daily for four consecutive days beginning twelve days after infection. Four days after the final medication, the animals were sacrificed and examined for the presence of worms. Efficacy was judged by the percent of mice cleared compared to non-medicated control mice.
as §1

[5] = test system: bacteria; settings: Foye et al., J. Am. Pharm. Assoc. 47, 556-558 (1958); cited from earlier work

SMILES	% Cleared/200 mg./kg. (c) [1]	% Cleared/200 mg./kg. (a) [2]	ED50 [3]	% Cleared/200 mg./kg. (b) [4]	anti-bacterial activity [5]	S.D. (percent of animals cleared at a single dose) ([3]; single dose of 25 mg./kg., mice)
CSC(=S)Nc1ccc(C)cn1 [Example 2, methyl (5-methyl-2-pyridyl)carbamodithioate]	30%	100%	7.75 ± 3.54 mg/kg	30%		
CCSC(=S)Nc1ccccn1 [Ethyl (2-pyridyl)-carbamodithioate]					active as an anti-bacterial agent	
CSC(=S)Nc1ccc(Cl)cn1 [Example 1, methyl (5-chloro-2-pyridyl)carbamodithioate]	40%	100%	2 ± 0.917 mg/kg	80%		
CSC(=S)Nc1ccc(N(C)C)cn1 [Example 3, methyl (5-dimethylamino-2-pyridyl)carbamodithioate]	0%	100%		0%		64.5%
